How the values were obtained:
Assay in all cases: relative viability (nuclei count vs DMSO), 5 days (fraction); higher = more cells survive
[1] = compound: OCc1c[nH]c2ccccc12 [Indole-3-carbinol] + N=C(N)NC(=N)NCCc1ccccc1 [Phenformin] (partner 250 µM)
Summary of the method: (§1)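 Relative viability divides the nuclei count in treated wells by that in vehicle wells. Lung cancer cell lines were seeded in 1536-well plates, dosed by pin tool the next day, and fixed and stained after 5 days in one step with final 0.05% Triton X-100, 1% formaldehyde and 1 ug/ml Hoechst. Dosing was a single drug or a fixed anchor-drug dose plus five library-drug doses (not always all listed) in √10 steps, and values are medians of duplicate plates imaged at 4×.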

[2] = compound: OCc1c[nH]c2ccccc12 [Indole-3-carbinol] + CCNC(=O)c1noc(-c2cc(C(C)C)c(O)cc2O)c1-c1ccc(CN2CCOCC2)cc1 [Luminespib] (partner 0.01 µM)
Summary of the method: as §1

[3] = compound: OCc1c[nH]c2ccccc12 [Indole-3-carbinol] + C[C@@H](Oc1cc(-c2cnn(C3CCNCC3)c2)cnc1N)c1c(Cl)ccc(F)c1Cl [Crizotinib] (partner 1 µM)
Summary of the method: as §1

[4] = compound: OCc1c[nH]c2ccccc12 [Indole-3-carbinol] + C[C@]1(O)C[C@@H](c2nc(-c3ccc4ccc(-c5ccccc5)nc4c3)c3c(N)nccn32)C1 [Linsitinib] (partner 1 µM)
Summary of the method: as §1

[5] = compound: OCc1c[nH]c2ccccc12 [Indole-3-carbinol] + CS(=O)(=O)N1CCN(Cc2cc3nc(-c4cccc5[nH]ncc45)nc(N4CCOCC4)c3s2)CC1 [Pictilisib] (partner 1 µM)
Summary of the method: as §1

Cell Line | relative viability ([1]; first compound 0.253 µM) | relative viability ([1]; first compound 0.8 µM) | relative viability ([1]; first compound 2.53 µM) | relative viability ([1]; first compound 8 µM) | relative viability ([2]; first compound 0.253 µM) | relative viability ([2]; first compound 0.8 µM) | relative viability ([2]; first compound 2.53 µM) | relative viability ([2]; first compound 8 µM) | relative viability ([3]; first compound 0.253 µM) | relative viability ([3]; first compound 0.8 µM) | relative viability ([3]; first compound 2.53 µM) | relative viability ([3]; first compound 8 µM) | relative viability ([4]; first compound 0.253 µM) | relative viability ([4]; first compound 0.8 µM) | relative viability ([4]; first compound 2.53 µM) | relative viability ([4]; first compound 8 µM) | relative viability ([5]; first compound 0.253 µM) | relative viability ([5]; first compound 0.8 µM) | relative viability ([5]; first compound 2.53 µM) | relative viability ([5]; first compound 8 µM)
SW 1573 | 0.34 | 0.449 | 0.404 | 0.363 | 0.183 | 0.248 | 0.303 | 0.138 | 0.722 | 0.936 | 0.833 | 0.678 | 0.77 | 0.898 | 0.932 | 0.754 | 0.361 | 0.577 | 0.544 | 0.425
HOP-62 | 0.724 | 0.654 | 0.671 | 0.628 | 0.911 | 0.927 | 0.937 | 0.831 | 0.621 | 0.912 | 0.889 | 0.924 | 1.03 | 1.06 | 1.14 | 0.937 | 0.771 | 0.806 | 1.01 | 0.731
UMC-11 | 0.33 | 0.319 | 0.339 | 0.324 | 1.01 | 0.953 | 1.04 | 1.01 | 0.589 | 0.708 | 0.696 | 0.577 | 0.937 | 0.983 | 0.963 | 0.967 | 0.792 | 0.836 | 0.764 | 0.789
LCLC-103H | 0.317 | 0.339 | 0.371 | 0.337 | 0.873 | 0.939 | 0.901 | 0.811 | 1.13 | 1.12 | 1.01 | 0.977 | 1.13 | 1.04 | 1.12 | 0.972 | 0.546 | 0.537 | 0.702 | 0.476
NCI-H1734 | 0.406 | 0.394 | 0.34 | 0.333 | 0.242 | 0.246 | 0.194 | 0.221 | 0.72 | 0.777 | 0.637 | 0.632 | 0.947 | 0.872 | 0.835 | 0.813 | 0.404 | 0.423 | 0.492 | 0.487
EKVX | 0.232 | 0.223 | 0.227 | 0.234 | 0.972 | 0.884 | 0.908 | 0.848 | 1.09 | 1.24 | 0.648 | 0.864 | 1.03 | 1.03 | 0.973 | 0.976 | 0.43 | 0.449 | 0.418 | 0.402
HARA | 0.484 | 0.479 | 0.554 | 0.435 | 0.616 | 0.576 | 0.675 | 0.55 | 1.11 | 1.23 | 1.06 | 0.987 | 0.92 | 0.979 | 1.06 | 0.978 | 0.299 | 0.573 | 0.573 | 0.407
EMC-BAC-2 | 0.528 | 0.536 | 0.489 | 0.413 | 1.2 | 1.23 | 1.09 | 1.06 | 0.72 | 0.785 | 0.794 | 0.666 | 0.827 | 0.823 | 0.806 | 0.771 | 0.532 | 0.453 | 0.555 | 0.359
PC-14 | 0.586 | 0.536 | 0.582 | 0.5 | 0.218 | 0.143 | 0.24 | 0.191 | 0.936 | 1.04 | 0.903 | 0.883 | 0.943 | 0.882 | 0.891 | 0.903 | 0.738 | 0.875 | 0.735 | 0.652
NCI-H520 | 0.58 | 0.549 | 0.622 | 0.585 | 0.188 | 0.178 | 0.219 | 0.211 | 0.826 | 0.948 | 1.02 | 0.754 | 1.04 | 0.872 | 1.24 | 0.854 | 0.287 | 0.255 | 0.27 | 0.254
NCI-H1755 | 0.645 | 0.594 | 0.636 | 0.625 | 0.554 | 0.407 | 0.49 | 0.348 | 0.916 | 0.97 | 0.862 | 0.888 | 1.03 | 1.05 | 0.95 | 0.959 | 0.401 | 0.318 | 0.442 | 0.424
NCI-H2087 | 0.45 | 0.525 | 0.466 | 0.386 | 0.119 | 0.194 | 0.177 | 0.172 | 1.01 | 0.997 | 1.1 | 0.88 | 1.07 | 1.04 | 1.01 | 0.915 | 0.726 | 1.07 | 0.91 | 0.833
NCI-H2023 | 0.454 | 0.426 | 0.434 | 0.399 | 0.526 | 0.751 | 0.818 | 0.707 | 0.716 | 0.732 | 0.651 | 0.631 | 0.728 | 0.667 | 0.687 | 0.589 | 0.218 | 0.237 | 0.23 | 0.236
CAL-12T | 0.584 | 0.553 | 0.58 | 0.559 | 0.393 | 0.533 | 0.592 | 0.767 | 0.657 | 0.866 | 0.718 | 0.639 | 0.835 | 0.846 | 0.832 | 0.71 | 0.338 | 0.616 | 0.398 | 0.377
NCI-H2085 | 0.684 | 0.85 | 0.787 | 0.624 | 0.456 | 0.429 | 0.395 | 0.498 | 0.897 | 0.738 | 0.832 | 0.786 | 0.828 | 0.897 | 0.982 | 0.779 | 0.41 | 0.389 | 0.444 | 0.503
NCI-H650 | 0.47 | 0.491 | 0.484 | 0.416 | 0.785 | 0.882 | 0.844 | 0.647 | 0.716 | 0.729 | 0.8 | 0.638 | 0.948 | 0.773 | 0.909 | 0.712 | 0.899 | 0.871 | 0.929 | 0.913
LCLC-97TM1 | 0.477 | 0.435 | 0.425 | 0.443 | 0.823 | 0.935 | 0.859 | 0.865 | 0.368 | 0.534 | 0.389 | 0.442 | 0.163 | 0.159 | 0.178 | 0.174 | 0.139 | 0.224 | 0.177 | 0.223
NCI-H2126 | 0.51 | 0.518 | 0.525 | 0.512 | 0.887 | 0.876 | 0.992 | 0.851 | 1.01 | 1.05 | 1.02 | 1.03 | 0.694 | 0.715 | 0.68 | 0.702 | 0.469 | 0.483 | 0.518 | 0.498
201T | 0.42 | 0.478 | 0.505 | 0.446 | 1.03 | 1.01 | 1.07 | 1 | 1.03 | 1.02 | 1.07 | 1.01 | 1.03 | 0.975 | 1.1 | 1.05 | 0.653 | 0.682 | 0.621 | 0.699
NCI-H1915 | 0.383 | 0.365 | 0.368 | 0.354 | 0.695 | 0.794 | 0.741 | 0.662 | 0.881 | 0.852 | 0.892 | 0.924 | 1.09 | 1.1 | 1.1 | 1.11 | 0.901 | 0.858 | 0.949 | 0.926
BEN | 0.269 | 0.262 | 0.265 | 0.253 | 0.346 | 0.188 | 0.377 | 0.379 | 0.857 | 0.722 | 0.917 | 0.743 | 0.863 | 0.827 | 0.84 | 0.847 | 0.497 | 0.456 | 0.69 | 0.542
NCI-H2347 | 0.405 | 0.34 | 0.496 | 0.435 | 0.609 | 0.215 | 0.425 | 0.59 | 0.747 | 0.607 | 0.706 | 0.671 | 0.986 | 1.06 | 1.04 | 0.793 | 0.673 | 0.532 | 0.719 | 0.599
H3255 | 0.397 | 0.385 | 0.414 | 0.343 | 0.875 | 0.9 | 0.847 | 0.857 | 0.865 | 0.817 | 0.968 | 0.759 | 0.916 | 0.983 | 0.928 | 0.897 | 0.427 | 0.483 | 0.467 | 0.48
NCI-H441 | 0.883 | 1.01 | 0.955 | 0.797 | 0.324 | 0.334 | 0.456 | 0.301 | 0.724 | 0.609 | 0.824 | 0.76 | 0.582 | 0.688 | 0.576 | 0.441 | 0.479 | 0.491 | 0.539 | 0.508
NCI-H2228 | 0.327 | 0.354 | 0.365 | 0.383 | 0.108 | 0.19 | 0.229 | 0.151 | 0.582 | 0.461 | 0.567 | 0.454 | 0.513 | 0.934 | 0.96 | 0.604 | 0.514 | 0.374 | 0.349 | 0.506
NCI-H1975 | 0.391 | 0.413 | 0.419 | 0.417 | 0.343 | 0.224 | 0.171 | 0.21 | 1 | 1.13 | 0.966 | 0.97 | 0.812 | 1.05 | 0.964 | 0.954 | 0.293 | 0.305 | 0.326 | 0.288
NCI-H647 | 0.637 |  | 0.569 | 0.446 | 0.261 | 0.199 | 0.156 | 0.236 | 1.23 | 1.13 | 1.04 | 1.01 | 1.08 | 1.44 | 1.13 | 1.04 | 0.469 |  | 0.489 | 0.437
